The record followed here is US12187755B2, “Minimal saponin analogues, synthesis and use thereof” (MEMORIAL SLOAN-KETTERING CANCER CENTER, priority 2014, dated 2025).

Data set [1] relates to C57BL/6J mice. Nature of the data set: preclinical mouse vaccination model, three-component vaccine (MUC1-KLH, OVA), antibody titers by ELISA. It counts as in vivo. The following applies: for antibody titers (anti-KLH, anti-MUC1, anti-OVA IgG): three-component vaccine MUC1-KLH + OVA, s.c. days 0, 7, 14, booster day 65, sera day 72. The protocol: A radioiodine (^131I) was introduced into the QS-21 saponin scaffold to enable in vivo biodistribution studies. The non-radiolabeled aryl iodide 6 (SQS-0-0-5-18) by acylation of amine 2 (SQS-0-0-5-11) was synthesized (FIG. 1B). Because no in vitro model exists to assess adjuvant activity, biological evaluation of aryl iodide 6 was carried out in a preclinical mouse vaccination model involving a multi-antigen formulation comprised of the immunogenic peptide MUC1 (prostate and breast cancer antigen, non-glycosylated tandem repeat) conjugated to the highly immunogenic KLH carrier protein (MUC1-KLH) and OVA, a reliable immunogen that induces both antibody and T-cell responses in mice. Antibody responses against each of the three antigens, co-administered with the adjuvant of interest, were determined by ELISA.
(§1) Groups of five mice (C57BL/6J, female, 6-8 weeks of age) were vaccinated with a three-component vaccine consisting of MUC1-KLH ([…]) and OVA ([…]), or a four-component vaccine that also included GD3-KLH ([…]). Antigens were co-administered with the adjuvant of interest ([…]) or without adjuvant (no-adjuvant control) in phosphate buffered saline (PBS, […]) via subcutaneous injections on days 0, 7, and 14, followed by a booster on day 65. Mouse sera were collected at day 72 and antibody titers against each antigen were determined by ELISA. Statistical significance of each antibody response compared to the no-adjuvant control was assessed using a two-tailed unpaired Student's t-test with CI=95%. As an initial, general assessment of toxicity, mouse weight loss was monitored on days 0, 1, 2, 3, and 7 after the first vaccination. These animal experiments were conducted as described in MSKCC Institutional Animal Care and Use Committee (IACUC) protocol #97-11-051.

Data set [2] in a line: toxicity assessment by mouse weight loss after first vaccination. In kind it is in vivo. The following applies: for toxicity assessed by mouse weight loss: three-component vaccine, median percent weight loss. The protocol:
as §1

A short description of data set [3]: in vivo biodistribution of radioiodinated saponins. Also on record: species or system mouse. To be noted: with OVA, 24-96 h. The protocol:
The aryl tin saponins (7, 9, 17, S9) were synthesized from the corresponding amine precursors (2, S4, 15, S8) by acylation with N-succinimidyl-4-(trimethylstannyl)benzoate 4 (Et3N, DMF, 21° C., 1-2.5 h). Radiolabeling was achieved by iodination of the aryl tin saponin (20 μg) with [^131I]—NaI and chloramine-T (methanol, 21° C., 1 min), followed by immediate HPLC purification. Solvents were removed by rotary evaporation at 35° C. and the radioiodinated probes were formulated in 0.9% saline for biodistribution studies. Co-elution of the radioiodinated probes with the corresponding cold saponins was used for quality control analysis.
Groups of five mice (naive, C57BL/6J female, 8-10 weeks of age) were injected subcutaneously with the radioiodinated saponin adjuvants of interest (˜[…]), the corresponding non-radiolabeled saponin ([…]), and OVA ([…]) in PBS ([…]). Mice were sacrificed at 24 h, 72 h, and 96 h post-injection. Tissues and organs were harvested and analyzed for distribution of radioactivity normalized to the weight of the organ (% ID/g, percent injected dose per gram). Statistical significance of the difference in recoveries (% ID/g) for the active and attenuated adjuvant was assessed for each tissue or organ using two-tailed unpaired Student's t-test with CI=95%.

In another data set the test system is mice. Nature of the data set: mouse vaccination with OVA antigen alone (FIG. 7B). It counts as in vivo. The following applies: OVA (20 μg). As for the experimental part: FIG. 7A: Synthesis of negative control saponin 8 (SQS-0-3-7-18): (i) SOCl2, pyridine, CH2Cl2/DMF, 21° C., 2 h, 91%; (ii) 1. H2 (50 psi), Pd/C (Degussa), THF/EtOH (1:1), 21° C., 24 h; 2. TFA/H2O (4:1), 0° C., 3.3 h, RP-HPLC, 50% (2 steps); (iii) 4, Et3N, DMF, 21° C., 3 h, RP-HPLC, 68%; (iv) 5, Et3N, DMF, 21° C., 2.5 h, RP-HPLC, 53%. FIG. 7B: Biological evaluation of aryl iodide saponin 8 with OVA antigen. Mice were vaccinated with OVA (20 μg) according to the general procedure discussed herein. Median titers represented as red horizontal bars. Statistical significance compared to SQS-21 was assessed using two-tailed unpaired Student's t-test with CI=95%: *=0.01≤p≤0.05 (significant).
Groups of five mice (C57BL/6J, female, 6-8 weeks of age) were vaccinated with a three-component vaccine consisting of MUC1-KLH ([…]) and OVA ([…]), or a four-component vaccine that also included GD3-KLH (5 mg). […] Mouse sera were collected at day 72 and antibody titers against each antigen were determined by ELISA. Statistical significance of each antibody response compared to the no-adjuvant control was assessed using a two-tailed unpaired Student's t-test with CI=95%. As an initial, general assessment of toxicity, mouse weight loss was monitored on days 0, 1, 2, 3, and 7 after the first vaccination. […]

The subject of data set [4] is C57BL/6J mice. In words: preclinical mouse vaccination model, four-component vaccine (MUC1-KLH, OVA, GD3-KLH), antibody titers by ELISA. It counts as in vivo. The following applies: 20 and 50 μg doses. The protocol:
as §1
These saponin variants were evaluated with a four-component vaccine comprised of MUC1-KLH, OVA, and the poorly immunogenic glycolipid GD3 (melanoma, neuroblastoma, sarcoma antigen) conjugated to KLH (GD3-KLH) (FIGS. 5B-E; see FIG. 16 for full data with both 20 and 50 μg doses).

In data set [5] the test system is C57BL/6J mice. In words: antibody subtyping of anti-MUC1 and anti-OVA IgG by class-specific ELISA. In kind it is in vivo, mouse. From the text:
Production of other mouse IgG subtypes, including IgG2a and IgG3, was low or negligible, as indicated by class-specific ELISA. Toxicity remained drastically lower for all four variants compared to NQS-21 and SQS-21 (FIG. 5f).

A short description of data set [6]: biodistribution of radioiodinated ovalbumin with and without adjuvant 6. In kind it is in vivo, mouse. To be noted: presence and absence of active adjuvant 6. The protocol: In a complementary experiment, the biodistribution of [^131I]-OVA in the presence and absence of active adjuvant 6 was examined (FIG. 10). […] Thus, the influence of 6 upon OVA antigen biodistribution could not be assessed effectively and an alternative experimental approach was required.
Radiolabeled ovalbumin was synthesized by treating 20 μg of ovalbumin with [^131I]—NaI and Chloramine-T in methanol. The reaction mixture was diluted with 2 mL phosphate buffered saline (PBS) followed by centrifugal filtration at 2800 rpm for 12 min using a 30 kDa molecular weight cutoff filter. This process was repeated twice and the concentrated compound was then formulated in 1 mL 0.9% saline for biodistribution studies.

Entries after “also recorded” stand apart in the source; their conditions may differ.

For `C[C@H]1O[C@@H](OC2C(O)C(NC(=O)CCCCCNC(=O)c3ccc(I)cc3)[C@H](CO)O[C@H]2OC(=O)C23CCC(C)(C)CC2C2=CCC4C5(C)CC[C@H](OC6OC(C(=O)O)[C@@H](O)[C@H](OC7OC[C@@H](O)[C@H](O)[C@@H]7O)[C@@H]6O[C@@H]6OC(CO)C(O)[C@@H](O)[C@@H]6O)[C@](C)(C=O)[C@@H]5CC[C@]4(C)[C@]2(C)C[C@@H]3O)C(O)C(O)C1O[C@@H]1OCC(O)C(O)C1O` (stereo partly shown) [compound 6], the “antibody titers (anti-KLH, anti-MUC1, anti-OVA IgG)” value with C57BL/6J mice [1] is “antibody titers comparable to both NQS-21”. The “toxicity assessed by mouse weight loss” value in data set [2] is on record as “reduced toxicity compared to QS-21”. In addition, the “localization and retention at injection site and lymph nodes (conclusion)” value in data set [3] is “localizes to and is retained at the injection site and lymph nodes”.

On to `CC1(C)CCC2(C(=O)NCCNC(=O)c3ccc(I)cc3)C(C1)C1=CCC3C4(C)CC[C@H](OC5OC(C(=O)O)[C@@H](O)[C@H](OC6OC[C@@H](O)[C@H](O)[C@@H]6O)[C@@H]5OC5OC(CO)[C@H](O)[C@H](O)[C@@H]5O)[C@](C)(C=O)[C@@H]4CC[C@]3(C)[C@]1(C)C[C@@H]2O` (stereo partly shown) [compound 8], for which, in the data set with mice, the “adjuvant activity with OVA antigen” value is reported as “poor adjuvant activity”.

As for `C[C@H]1O[C@@H](OC2C(O)C(NC(=O)CCCCCNC(=O)c3ccc(I)cc3)[C@H](CO)O[C@H]2OC(=O)[C@]23CCC(C)(C)CC2C2=CCC4C5(C)CC[C@H](O)C(C)(C)[C@@H]5CC[C@]4(C)[C@]2(C)CC3)C(O)C(O)C1O[C@@H]1OCC(O)C(O)C1O` (stereo partly shown) [compound 18], the “antibody titers (anti-KLH, anti-MUC1, anti-OVA IgG)” value in the data set with C57BL/6J mice [1] is given as “lower antibody titers against all three antigens compared to the parent quillaic acid derivative 16”. Further, the “toxicity assessed by mouse weight loss” value in data set [2] is recorded as “low toxicity”.

`C[C@H]1O[C@@H](OC2C(O)C(NC(=O)CCCCCNC(=O)c3ccc(I)cc3)[C@H](CO)O[C@H]2OC(=O)C23CCC(C)(C)CC2C2=CCC4C5(C)CC[C@H](O)C(C)(C)[C@@H]5CC[C@]4(C)[C@]2(C)C[C@@H]3O)C(O)C(O)C1O[C@@H]1OCC(O)C(O)C1O` (stereo partly shown) [compound 20]: the “antibody responses (anti-KLH, anti-MUC1, anti-OVA IgG, anti-GD3 IgM and IgG)” value in the data set on C57BL/6J mice [4] is “highest antibody responses to all four antigens; also recorded: immunostimulatory activity generally rivaling that of SQS-21”. Further, in data set [2] (four-component vaccine, one week after first injection), the “toxicity (mouse weight loss)” value is given as “dramatically reduced toxicity compared to the natural product”. In the data set with C57BL/6J mice [5], the “IgG subtypes of anti-MUC1 and anti-OVA antibodies” value is “significant bias toward the mouse IgG1 and IgG2b subtype”.

For the molecule `C[C@H]1O[C@@H](OC2C(O)C(NC(=O)CCCCCNC(=O)c3ccc(I)cc3)[C@H](CO)O[C@H]2OC(=O)C23CCC(C)(C)CC2C2=CCC4C5(C)CC[C@H](O)[C@](C)(C=O)[C@@H]5CC[C@]4(C)[C@]2(C)CC3)C(O)C(O)C1O[C@@H]1OCC(O)C(O)C1O` (stereo partly shown) [compound 21], the “antibody responses (anti-KLH, anti-MUC1, anti-OVA IgG, anti-GD3 IgM and IgG)” value with C57BL/6J mice [4] is “lower antibody responses in all cases except the anti-GD3 IgG response”.

Consider `C[C@@H]1O[C@@H](O[C@H]2[C@H](OC(=O)[C@]34CCC(C)(C)C[C@H]3C3=CC[C@@H]5[C@@]6(C)CC[C@H](O)[C@@](C)(C=O)[C@@H]6CC[C@@]5(C)[C@]3(C)C[C@H]4O)O[C@H](CO)[C@H](NC(=O)CCCCCNC(=O)c3ccc(I)cc3)[C@@H]2O)[C@H](O)[C@H](O)[C@H]1O[C@@H]1OC[C@@H](O)[C@H](O)[C@H]1O` [compound 16], for which the “KLH and MUC1 antibody responses” value in the data set on C57BL/6J mice [1] (three-component vaccine, exception anti-MUC1 titers at lower dose (20 μg)) was “comparable to those of parent aryl iodide 6, NQS-21, and SQS-21”. Also, the “toxicity assessed by mouse weight loss” value in data set [2] was “much lower toxicity than NQS-21 and SQS-21”.

With `C[C@H]1O[C@@H](OC2C(O)C(NC(=O)CCCCCNC(=O)c3ccc(I)cc3)[C@H](CO)O[C@H]2OC(=O)[C@]23CCC(C)(C)CC2C2=CCC4C5(C)CC[C@H](O)[C@](C)(CO)[C@@H]5CC[C@]4(C)[C@]2(C)CC3O)C(O)C(O)C1O[C@@H]1OCC(O)C(O)C1O` (stereo partly shown) [compound 19], the “antibody responses (anti-KLH, anti-MUC1, anti-OVA IgG, anti-GD3 IgM and IgG)” value with C57BL/6J mice [4] is given as “antibody titers slightly below those of echinocystic acid derivative 20; also recorded: antibody responses similar to the complete, branched trisaccharide-containing saponin 6”. Also, the “IgG subtypes of anti-MUC1 and anti-OVA antibodies” value in the data set on C57BL/6J mice [5] was “significant bias toward the mouse IgG1 and IgG2b subtype”.

For `C[C@@H]1O[C@@H](O[C@H]2[C@H](OC(=O)[C@]34CCC(C)(C)C[C@H]3C3=CC[C@@H]5[C@@]6(C)CC[C@H](O)[C@@](C)(CO)[C@@H]6CC[C@@]5(C)[C@]3(C)CC4)O[C@H](CO)[C@H](NC(=O)CCCCCNC(=O)c3ccc(I)cc3)[C@@H]2O)[C@H](O)[C@H](O)[C@H]1O[C@@H]1OC[C@@H](O)[C@H](O)[C@H]1O` [compound 22], the “antibody responses (anti-KLH, anti-MUC1, anti-OVA IgG, anti-GD3 IgM and IgG)” value in the data set on C57BL/6J mice [4] is “lower antibody responses in all cases except the anti-GD3 IgG response”.

B1: [131I]-OVA: radioiodinated ovalbumin antigen (protein, UniProt P01012 2-386, looked up)
Ovalbumin: GSIGAASMEFCFDVFKELKVHHANENIFYCPIAIMSALAMVYLGAKDSTRTQINKVVRFDKLPGFGDSIEAQCGTSVNVHSSLRDILNQITKPNDVYSFSLASRLYAEERYPILPEYLQCVKELYRGGLEPINFQTAADQARELINSWVESQTNGIIRNVLQPSSVDSQTAMVLVNAIVFKGLWEKAFKDEDTQAMPFRVTEQESKPVQMMYQIGLFRVASMASEKMKILELPFASGTMSMLVLLPDEVSGLEQLESIINFEKLTEWTSSNVMEERKIKVYLPRMKMEEKYNLTSVLMAMGITDVFSSSANLSGISSAESLKISQAVHAAHAEINEAGREVVGSAEAGVDAASVSEEFRADHPFLFCIKHIATNAVLFFGRCVSP
modifications: 131I radiolabel
notes: radioiodinated ovalbumin antigen
As for B1, the “thyroid uptake of [131I]-OVA” value in data set [6] was “thyroid uptake was also high”.
